The record followed here is PubChem BioAssay (NCI).

Some test systems named below: ACHN renal; CAKI-1 renal; CCRF-CEM leukemia; COLO 205 colon; DU-145 prostate; EKVX NSCLC; HOP-92 NSCLC; KM12 colon; MCF7 breast; MDA-MB-231 breast; MOLT-4 leukemia; NCI-H226 lung; NCI-H522 lung; SF-268 CNS; SNB-19 CNS; SW-620 colon; T-47D breast.
Common to all, as to test: DTP human tumour cell line panel, 48 h

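Growth conditions: 96-well plates. Treatment: test compound, 48 hours, 5 concentrations. Analysis: linear interpolation between bracketing concentrations; unreached endpoints set to highest concentration. The concentration for full growth arrest is given as TGI.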

As for `Cc1cc2c(cc1Cl)Sc1nnc(C)n1S2(=O)=O`, the TGI in the experiment on ACHN renal was found to be 27.7 µM; in the experiment with CAKI-1 renal, 29.9 µM; with CCRF-CEM leukemia, 34.1 µM; in the experiment with COLO 205 colon it was 30.7 µM; with DU-145 prostate, 65 µM; in the experiment on EKVX NSCLC, 34.3 µM. For the same compound, the total growth inhibition concentration (TGI) was 24.1 µM in the experiment with HOP-92 NSCLC; 30.9 µM with KM12 colon; 18.1 µM with MCF7 breast; 31.4 µM in the experiment with MDA-MB-231 breast; 34.7 µM in the experiment on MOLT-4 leukemia; greater than 100 µM in the experiment with NCI-H226 lung. Besides, the concentration for total growth inhibition (TGI) in the experiment with NCI-H522 lung came to 23.4 µM; in the experiment on SF-268 CNS, 42.4 µM; with SNB-19 CNS it was 86.5 µM; in the experiment on SW-620 colon it was 35 µM; with T-47D breast it was 28.3 µM.

As to `CCOC(=O)c1cc2cc(CSc3ccccc3)ccc2oc1=O`, the TGI in the experiment with ACHN renal, in the experiment on CAKI-1 renal, in the experiment with CCRF-CEM leukemia, with COLO 205 colon, in the experiment on DU-145 prostate and with EKVX NSCLC was greater than 100 µM in each case. The TGI in the experiment on HOP-92 NSCLC, in the experiment with KM12 colon, in the experiment with MCF7 breast, with MDA-MB-231 breast, in the experiment on MOLT-4 leukemia and with NCI-H226 lung was greater than 100 µM throughout. In addition, the TGI in the experiment on NCI-H522 lung, in the experiment on SF-268 CNS, in the experiment with SNB-19 CNS, in the experiment on SW-620 colon and with T-47D breast was greater than 100 µM throughout.

Take `O=C(O)c1cc2c(cc1S(=O)(=O)O)C1C(C3C2C2(Cl)C(Cl)=C(Cl)C3(Cl)C2(Cl)Cl)C2(Cl)C(Cl)=C(Cl)C1(Cl)C2(Cl)Cl` (stereo unspecified): the total growth inhibition concentration (TGI) is greater than 100 µM in the experiment with ACHN renal; greater than 100 µM in the experiment on CAKI-1 renal; 37.3 µM in the experiment with CCRF-CEM leukemia; greater than 100 µM in the experiment on COLO 205 colon; greater than 100 µM in the experiment with DU-145 prostate; greater than 100 µM in the experiment on EKVX NSCLC. The TGI is 85.2 µM in the experiment with HOP-92 NSCLC; greater than 100 µM in the experiment on KM12 colon; greater than 100 µM in the experiment on MCF7 breast; 50.9 µM in the experiment with MDA-MB-231 breast; greater than 100 µM in the experiment on MOLT-4 leukemia; 49 µM in the experiment on NCI-H226 lung. Moreover, the TGI in the experiment with NCI-H522 lung was 46.8 µM; with SF-268 CNS, greater than 100 µM; with SNB-19 CNS it was greater than 100 µM; in the experiment with SW-620 colon, greater than 100 µM; in the experiment on T-47D breast, greater than 100 µM.

Take `Cc1ccnc2c1c(=O)c1ccccc1n2C`: the TGI is 56.8 µM in the experiment with ACHN renal; 51.4 µM in the experiment on CAKI-1 renal; greater than 100 µM in the experiment on CCRF-CEM leukemia; greater than 100 µM with COLO 205 colon; greater than 100 µM in the experiment with DU-145 prostate; greater than 100 µM with EKVX NSCLC. The TGI with HOP-92 NSCLC is greater than 100 µM; with KM12 colon, greater than 100 µM; in the experiment with MCF7 breast, greater than 100 µM; with MDA-MB-231 breast, greater than 100 µM; with MOLT-4 leukemia, 73.8 µM; with NCI-H226 lung, greater than 100 µM. The TGI is 65.7 µM in the experiment with NCI-H522 lung; greater than 100 µM in the experiment with SF-268 CNS; greater than 100 µM with SNB-19 CNS; greater than 100 µM in the experiment on SW-620 colon; greater than 100 µM with T-47D breast.

As for `COc1ncc(C#CC(=O)c2ccccc2OC)c(OC)n1`, the TGI with ACHN renal is 3.27 µM; in the experiment with CAKI-1 renal it was 4.17 µM; in the experiment with CCRF-CEM leukemia it was 1.58 µM; with COLO 205 colon, 4.12 µM; with DU-145 prostate, 12.3 µM; with EKVX NSCLC, 10.3 µM. Moreover, the TGI in the experiment on HOP-92 NSCLC was 4.47 µM; in the experiment with KM12 colon, 18.4 µM; in the experiment on MCF7 breast, 2.91 µM; with MDA-MB-231 breast it was 2.75 µM; with MOLT-4 leukemia, 1.61 µM; in the experiment on NCI-H226 lung, 3.35 µM. For the same compound, the total growth inhibition concentration (TGI) in the experiment with NCI-H522 lung stood at 2.21 µM; with SF-268 CNS, 12.2 µM; in the experiment on SNB-19 CNS it was 29.3 µM; in the experiment with SW-620 colon, 2.73 µM; with T-47D breast, 22.9 µM.

In the case of `COc1cc(/C=C2\CCc3cc(OC)c(OC)cc3C2=O)cc(OC)c1`, the TGI in the experiment on ACHN renal was greater than 100 µM; in the experiment on CAKI-1 renal, greater than 100 µM; in the experiment on CCRF-CEM leukemia, greater than 60 µM; in the experiment with COLO 205 colon, greater than 52.1 µM; in the experiment with DU-145 prostate, 78.5 µM; with EKVX NSCLC it was greater than 100 µM. Moreover, the TGI in the experiment on HOP-92 NSCLC is greater than 100 µM; in the experiment on KM12 colon it was greater than 51.7 µM; in the experiment on MCF7 breast, greater than 84.3 µM; in the experiment on MDA-MB-231 breast it was greater than 100 µM; with MOLT-4 leukemia, greater than 100 µM; with NCI-H226 lung it was greater than 100 µM. Further, the TGI was greater than 42.3 µM in the experiment with NCI-H522 lung; greater than 100 µM in the experiment on SF-268 CNS; greater than 100 µM in the experiment with SNB-19 CNS; greater than 100 µM in the experiment with SW-620 colon; 62.1 µM in the experiment on T-47D breast.

For the compound `CC(=O)O/C(=C(/C#N)C(=O)O)C1C(C(=O)O)C(c2ccccc2[N+](=O)[O-])C=C(c2ccco2)N1c1ccncc1` (stereo unspecified), the TGI in the experiment with ACHN renal was 4.5 µM; in the experiment on CAKI-1 renal, 14.1 µM; in the experiment with CCRF-CEM leukemia, greater than 100 µM; in the experiment with COLO 205 colon it was 7.82 µM; with DU-145 prostate, 21.4 µM; in the experiment on EKVX NSCLC, 22.1 µM. The TGI with HOP-92 NSCLC turned out to be 35.1 µM; with KM12 colon, 3.14 µM; in the experiment with MCF7 breast, 4.38 µM; in the experiment with MDA-MB-231 breast, 14.6 µM; in the experiment on MOLT-4 leukemia, 14.4 µM; in the experiment with NCI-H226 lung it was 18.9 µM. Also, the TGI amounted to 11.3 µM with NCI-H522 lung; 25.2 µM in the experiment on SF-268 CNS; 24.2 µM in the experiment on SNB-19 CNS; 3.57 µM in the experiment with SW-620 colon; 18.4 µM with T-47D breast.

Take `O=C1NC(N/N=C/C(O)C(O)C(O)C(O)CO)=N/C1=C\c1cccs1` (stereo unspecified): the total growth inhibition concentration (TGI) with ACHN renal, in the experiment with CAKI-1 renal, in the experiment with CCRF-CEM leukemia, in the experiment on COLO 205 colon, in the experiment with DU-145 prostate and in the experiment with EKVX NSCLC was greater than 100 µM in each case. In addition, the concentration for total growth inhibition (TGI) in the experiment on HOP-92 NSCLC, with KM12 colon, in the experiment on MCF7 breast, in the experiment with MDA-MB-231 breast, in the experiment on MOLT-4 leukemia and in the experiment with NCI-H226 lung was greater than 100 µM each time. Besides, the TGI with NCI-H522 lung, with SF-268 CNS, in the experiment with SNB-19 CNS, with SW-620 colon and in the experiment on T-47D breast was greater than 100 µM throughout.

The TGI is the concentration at which net growth stops.
